biological target: human GPR40 receptor (Homo sapiens, UniProt O14842); assay: Assay I: IP1 accumulation (IPOne assay system) in 1321N1 cells stably expressing human GPR40 receptor; assay type: cell-based; details: stimulated 1 hour at 37° C., 10% CO2, LiCl 50 mM
Method: IP1 accumulation measurements using the IPOne assay system—1321N1 cells stably expressing human GPR40 receptor (Euroscreen, Belgium) are seeded 24 h before the assay in black clear-bottom collagen-coated 384-well plates in culture medium containing 10% FCS, 1% Na-Pyruvate and 400 μg/mL G418. IP1 is assayed according to the Manufacturer's description (Cisbio Bioassays, France). In brief, the assay is started by substitution of the culture medium by stimulation buffer (Hepes 10 mM, CaCl2 1 mM, MgCl2 0.5 mM, KCl 4.2 mM, NaCl 146 mM and glucose 5.5 mM, pH 7.4) without LiCl. Cells are stimulated for 1 hour at 37° C., 10% CO2 by addition of the compounds that are diluted in stimulation buffer containing LiCl yielding a final LiCl concentration of 50 mM. Assays are stopped by adding HTRF-conjugates (IP1-d2 and Anti-IP1 cryptate Tb) and lysis buffer, provided by the manufacturer. After an incubation time of 1 hour at room temperature plates are measured using an EnVision™, Perkin Elmer. The obtained fluorescence ratios at 665/615 nM are then used to calculate the pEC50 values using GraphPad Prism 5 (Graphpad Software Inc, USA) by interpolation using an IP1 reference curve and subsequent sigmoidal curve fitting allowing for a variable hill slope.

human GPR40 receptor, sequence (O14842 whole entry): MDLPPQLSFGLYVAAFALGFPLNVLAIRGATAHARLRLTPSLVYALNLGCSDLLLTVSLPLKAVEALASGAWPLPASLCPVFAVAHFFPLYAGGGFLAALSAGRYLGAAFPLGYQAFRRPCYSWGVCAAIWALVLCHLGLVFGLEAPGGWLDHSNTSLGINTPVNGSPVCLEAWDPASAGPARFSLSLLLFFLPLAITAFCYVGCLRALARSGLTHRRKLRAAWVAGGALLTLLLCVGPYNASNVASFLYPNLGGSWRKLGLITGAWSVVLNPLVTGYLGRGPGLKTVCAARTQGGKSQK

| Structure (SMILES) | EC50 |
| --- | --- |
| CSc1ccc(Cc2c(C#N)ccc3c2CC[C@H]3Oc2ccc3c(c2)OC[C@H]3CC(=O)O)cc1 [Example 7, {(S)-6-[(R)-5-Cyano-4-(4-methylsulfanyl-benzyl)-indan-1-yloxy]-2,3-dihydro-benzofuran-3-yl}-acetic acid] | 18 nM |
| Cc1ccccc1Cc1c(C#N)ccc2c1CC[C@H]2Oc1ccc2c(c1)OC[C@H]2CC(=O)O [Example 6, {(S)-6-[(R)-5-Cyano-4-(2-methyl-benzyl)-indan-1-yloxy]-2,3-dihydro-benzofuran-3-yl}-acetic acid] | 8 nM |
| COc1ccc(Cc2ccc(F)c3c2CC[C@H]3Oc2ccc3c(c2)OC[C@H]3CC(=O)O)cc1 [Example 13, {(S)-6-[(R)-7-Fluoro-4-(4-methoxybenzyl)-indan-1-yloxy]-2,3-dihydrobenzofuran-3-yl}acetic acid] | 5 nM |
| N#Cc1ccc2c(c1Cc1ccc(Cl)nc1)CC[C@H]2Oc1ccc2c(c1)OC[C@H]2CC(=O)O [Example 2, {(S)-6-[(R)-4-(6-Chloro-pyridin-3-ylmethyl)-5-cyano-indan-1-yloxy]-2,3-dihydro-benzofuran-3-yl}-acetic acid] | 36 nM |
| CS(=O)(=O)c1ccc(Cc2c(C#N)ccc3c2CC[C@H]3Oc2ccc3c(c2)OC[C@H]3CC(=O)O)cc1 [Example 8, {(S)-6-[(R)-5-Cyano-4-(4-methylsulfonyl-benzyl)-indan-1-yloxy]-2,3-dihydro-benzofuran-3-yl}-acetic acid] | 325 nM |
| N#Cc1ccc2c(c1Cc1ccc(O)cc1)CC[C@H]2Oc1ccc2c(c1)OC[C@H]2CC(=O)O [Example 11, {(S)-6-[(R)-5-Cyano-4-(4-hydroxy-benzyl)-indan-1-yloxy]-2,3-dihydro-benzofuran-3-yl}-acetic acid] | 12 nM |
| N#Cc1cccc(Cc2c(C#N)ccc3c2CC[C@H]3Oc2ccc3c(c2)OC[C@H]3CC(=O)O)c1 [Example 9, {(S)-6-[(R)-5-Cyano-4-(3-cyano-benzyl)-indan-1-yloxy]-2,3-dihydro-benzofuran-3-yl}-acetic acid] | 29 nM |
| C[S+]([O-])c1ccc(Cc2c(C#N)ccc3c2CC[C@H]3Oc2ccc3c(c2)OC[C@H]3CC(=O)O)cc1 (stereo partly drawn) [Example 12, {(S)-6-[(R)-5-Cyano-4-(4-methylsulfinyl-benzyl)-indan-1-yloxy]-2,3-dihydro-benzofuran-3-yl}-acetic acid] | 479 nM |
| Cc1cccc(C)c1Cc1c(C#N)ccc2c1CC[C@H]2Oc1ccc2c(c1)OC[C@H]2CC(=O)O [Example 5, {(S)-6-[(R)-5-Cyano-4-(2,6-dimethyl-benzyl)-indan-1-yloxy]-2,3-dihydro-benzofuran-3-yl}-acetic acid] | 6 nM |
| O=C(O)C[C@@H]1COc2cc(O[C@@H]3CCc4c(Cc5ccc(Cl)nc5)ccc(F)c43)ccc21 [Example 15] | 35 nM |

From patent publication US8809376B2, “Indanyloxydihydrobenzofuranylacetic acids” (Boehringer Ingelheim International GmbH, priority 2012, dated 2014)
